Experimental data: patent US11590134B2, “Aminopyrimidine amide autophagy inhibitors and methods of use thereof” (Deciphera Pharmaceuticals, LLC, priority 2019, dated 2023)

Tests used:
ULK1 kinase = target: T1, ULK1 kinase (Homo sapiens, UniProt O75385); assay: Biochemical assay for ULK1.2 (coupled pyruvate kinase/lactate dehydrogenase assay); conditions: 19 nM ULK1 (residues 1-314), myelin basic protein substrate, 1 mM ATP
T1 construct: purchased Eurofins 14-959
T1 sequence (O75385 with tags, fused parts or gaps): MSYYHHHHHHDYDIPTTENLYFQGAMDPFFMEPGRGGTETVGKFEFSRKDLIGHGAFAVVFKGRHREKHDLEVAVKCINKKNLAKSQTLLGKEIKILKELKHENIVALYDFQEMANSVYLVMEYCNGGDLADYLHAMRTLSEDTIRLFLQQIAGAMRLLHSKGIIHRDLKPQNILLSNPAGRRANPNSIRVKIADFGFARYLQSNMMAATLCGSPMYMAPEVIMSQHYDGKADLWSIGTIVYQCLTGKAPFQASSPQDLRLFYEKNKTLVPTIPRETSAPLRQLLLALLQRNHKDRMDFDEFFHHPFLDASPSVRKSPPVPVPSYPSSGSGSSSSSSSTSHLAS
Experimental: (§1) Activity of ULK1 kinase was determined spectroscopically using a coupled pyruvate kinase/lactate dehydrogenase assay that continuously monitors the ATP hydrolysis-dependent oxidation of NADH (e.g., Schindler et al. Science (2000) 289: 1938-1942). Assays were conducted in 384-well plates (100 uL final volume) using 19 nM ULK1 (Eurofins CAT #14-959), 0.25 mg/mL myelin basic protein, 1.5 units pyruvate kinase, 2.1 units lactate dehydrogenase, 1 mM phosphoenol pyruvate, 0.28 mM NADH and 1 mM ATP in assay buffer (100 mM Tris, pH 7.5, 15 mM MgCl2, 0.5 mM DTT, 0.1% octyl-glucoside, 0.002% (w/v) BSA, and 0.002% Triton X-100). Inhibition of ULK1 was measured by adding serial diluted test compound (final assay concentration of 1% DMSO). A decrease in absorption at 340 nm was monitored continuously for 6 hours at 30° C. on a multi-mode microplate reader (BioTek). The reaction rate was calculated using the 2-3 h time frame. The reaction rate at each concentration of compound was converted to percent inhibition using controls (i.e. reaction with no test compound and reaction with a known inhibitor) and IC50 values were calculated by fitting a four-parameter sigmoidal curve to the data using Prism (GraphPad software).

ULK2 kinase = target: T2, ULK2 kinase (Homo sapiens, UniProt Q8IYT8); assay: Biochemical assay for ULK2 (coupled pyruvate kinase/lactate dehydrogenase assay); conditions: 9.7 nM ULK2 (residues 1-306), myelin basic protein substrate, 1 mM ATP; read-out: ULK2.2
T2 construct: purchased Eurofins 14-772
Experimental: as §1, with “of ULK2” for “of ULK1”, “using 9.7” for “using 19”, “nM ULK2” for “nM ULK1”, “CAT #14-772),” for “CAT #14-959),”

LRRK2 kinase = target: T3, LRRK2 kinase (Homo sapiens, UniProt Q5S007); assay: Biochemical assay for LRRK2 (coupled pyruvate kinase/lactate dehydrogenase assay); conditions: 26.4 nM LRRK2 (residues 970-2528), peptide substrate, 1 mM ATP
T3 construct: (residues 970-2528; ID NO; 4); purchased Thermo Fisher
Experimental: Activity of LRRK2 kinase was determined spectroscopically using a coupled pyruvate kinase/lactate dehydrogenase assay that continuously monitors the ATP hydrolysis-dependent oxidation of NADH (e.g., Schindler et al. Science (2000) 289: 1938-1942). Assays were conducted in 384-well plates (100 uL final volume) using 26.4 nM LRRK2 (Thermo Fisher), 0.1 mM peptide substrate (RLGRDKYKTLRQIRQ (SEQ ID NO: 6)), 1.5 units pyruvate kinase, 2.1 units lactate dehydrogenase, 1 mM phosphoenol pyruvate, 0.28 mM NADH and 1 mM ATP in assay buffer (100 mM Tris, pH 7.5, 15 mM MgCl2, 0.5 mM DTT, 0.004% (w/v) BSA, and 0.004% Triton X-100). Inhibition of LRRK2 was measured by adding serial diluted test compound (final assay concentration of 1% DMSO). A decrease in absorption at 340 nm was monitored continuously for 6 hours at 30° C. on a multi-mode microplate reader (BioTek). The reaction rate was calculated using the 2-3 h time frame. The reaction rate at each concentration of compound was converted to percent inhibition using controls (i.e. reaction with no test compound and reaction with a known inhibitor) and IC50 values were calculated using software routines in Prism (GraphPad software).

[1] = tested on: ULK kinase substrate ATG13 (phospho-Serine 318 ATG13) in A549 cells; assay: pATG13 ELISA in mutant KRas A549 cells in combination with trametinib; format: cell-based; conditions: A549 (KRAS mutant) human lung cancer cells, with 250 nM trametinib, overnight
Experimental: A549 (KRAS mutant) human lung cancer cells (6,000 cells/well) were added to a 384-well tissue-culture treated plate in 50 μL of pre-warmed DMEM medium supplemented with 10% characterized fetal bovine serum (Invitrogen, Carlsbad, Calif.), 100 units/mL penicillin G, and 100 μg/mL streptomycin and allowed to grow overnight at 37° C., 5% CO2, and 95% humidity. The following day, 10 μL of media containing trametinib or DMSO as a control was added to wells. The final concentration of trametinib in wells was 250 nM. A dose response of a test compound (0.6 μL per well) was added. DMSO (0.6 μL) was added to control wells. The plate was briefly shaken to mix wells and then incubated at 37° C. overnight. The next day, the media was aspirated and cells were washed with Dulbecco's Phosphate Buffered Saline (Gibco). Cells were lysed using MPER lysis buffer (Pierce, Rockford, Ill.) containing Halt Phosphatase and Protease Inhibitors (Pierce, Rockford, Ill.) and Phosphatase inhibitor cocktail 2 (Sigma, St. Louis, Mo.) at 4° C. for 10 minutes with shaking.
Cellular levels of phospho-Serine 318 ATG13 (pATG13) were measured via an ELISA method. Total ATG13 Antibody (Cell Signaling Cat #13273) was used to coat the wells. The plate was incubated at 4° C. overnight and washed with ELISA wash buffer (Biolegend Cat #421601). The wells were then blocked with assay diluent (Biolegend Cat #421203) for 1 hour at room temperature. Plate wells were washed with ELISA wash buffer. Cell lysate was added to wells and incubated at room temperature for 2 hours. Plate wells were washed with ELISA wash buffer. Biotinylated pS318-ATG13 antibody (Rockland Immunochemicals Cat #600-401-C49) was diluted in assay diluent and added to each well and incubated at room temperature for 1 hour. Plate wells were washed with ELISA wash buffer. Streptavidin linked to horseradish peroxidase (Thermo Fisher Cat #21140) was diluted in assay diluent and added to each well and incubated at room temperature for 1 hour. Plate wells were washed with ELISA wash buffer. High sensitivity TMB substrate (Biolegend Cat #421101) was added to each well and incubated at room temperature for 20 minutes. The reaction was stopped with 2N Sulfuric Acid. The plate was analyzed at on a plate reader measuring absorbance at 450 nm and 540 nm (background). Signal was calculated by first subtracting the background absorbance at 540 nm from the absorbance at 450 nm for each well. Next, the background corrected absorbance at 450 nm from blank wells was subtracted from test wells. Data was compared to control wells to determine % ATG13 phosphorylation. GraphPad Prism was used to calculate IC50 values.

T3 sequence (Q5S007 with tags, fused parts or gaps): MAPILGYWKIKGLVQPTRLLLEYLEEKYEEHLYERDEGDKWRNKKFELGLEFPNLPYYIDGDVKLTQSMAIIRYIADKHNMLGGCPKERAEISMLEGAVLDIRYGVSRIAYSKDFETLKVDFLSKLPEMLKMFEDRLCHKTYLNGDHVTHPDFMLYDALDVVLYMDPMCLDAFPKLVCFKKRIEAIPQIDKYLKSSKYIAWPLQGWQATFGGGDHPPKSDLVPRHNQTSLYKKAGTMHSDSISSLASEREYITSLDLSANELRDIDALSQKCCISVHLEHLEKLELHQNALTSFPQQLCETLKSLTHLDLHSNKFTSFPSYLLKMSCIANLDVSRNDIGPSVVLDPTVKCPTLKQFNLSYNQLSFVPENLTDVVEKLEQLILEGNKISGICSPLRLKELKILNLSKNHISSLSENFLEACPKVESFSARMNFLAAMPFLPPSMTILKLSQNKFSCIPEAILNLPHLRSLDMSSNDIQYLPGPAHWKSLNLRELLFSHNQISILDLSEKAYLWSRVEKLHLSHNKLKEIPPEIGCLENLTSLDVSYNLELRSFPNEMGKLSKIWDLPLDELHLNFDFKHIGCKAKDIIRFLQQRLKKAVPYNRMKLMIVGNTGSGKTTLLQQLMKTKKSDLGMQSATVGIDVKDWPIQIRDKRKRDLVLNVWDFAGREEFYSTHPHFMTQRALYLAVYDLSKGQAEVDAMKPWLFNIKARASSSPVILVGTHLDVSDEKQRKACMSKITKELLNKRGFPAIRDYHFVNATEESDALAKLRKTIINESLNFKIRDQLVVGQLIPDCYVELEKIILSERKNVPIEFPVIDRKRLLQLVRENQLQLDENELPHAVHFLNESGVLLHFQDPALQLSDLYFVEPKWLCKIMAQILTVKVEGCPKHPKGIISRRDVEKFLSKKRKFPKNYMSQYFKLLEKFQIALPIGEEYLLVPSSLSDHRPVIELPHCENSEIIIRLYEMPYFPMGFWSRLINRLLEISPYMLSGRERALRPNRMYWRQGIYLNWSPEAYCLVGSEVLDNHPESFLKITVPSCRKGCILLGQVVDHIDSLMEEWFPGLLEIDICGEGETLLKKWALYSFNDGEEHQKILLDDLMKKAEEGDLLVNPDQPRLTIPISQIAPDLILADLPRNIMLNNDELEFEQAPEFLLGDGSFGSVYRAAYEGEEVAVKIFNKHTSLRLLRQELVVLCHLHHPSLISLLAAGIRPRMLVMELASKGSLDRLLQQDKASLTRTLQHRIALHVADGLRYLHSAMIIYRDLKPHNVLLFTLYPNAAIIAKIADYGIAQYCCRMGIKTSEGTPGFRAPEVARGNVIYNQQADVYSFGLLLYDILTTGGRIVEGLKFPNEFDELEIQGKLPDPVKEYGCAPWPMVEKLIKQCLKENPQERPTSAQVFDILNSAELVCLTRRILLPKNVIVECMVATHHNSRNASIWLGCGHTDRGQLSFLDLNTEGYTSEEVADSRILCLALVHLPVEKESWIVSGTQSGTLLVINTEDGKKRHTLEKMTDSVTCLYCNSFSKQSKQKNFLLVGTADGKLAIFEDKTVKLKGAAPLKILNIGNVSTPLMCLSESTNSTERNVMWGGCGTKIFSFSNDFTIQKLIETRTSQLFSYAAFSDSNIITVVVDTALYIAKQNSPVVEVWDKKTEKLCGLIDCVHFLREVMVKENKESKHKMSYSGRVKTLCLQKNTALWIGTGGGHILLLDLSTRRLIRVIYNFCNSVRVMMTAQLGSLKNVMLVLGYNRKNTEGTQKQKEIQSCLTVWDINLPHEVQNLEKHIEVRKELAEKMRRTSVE
T2 sequence (Q8IYT8 with tags, fused parts or gaps): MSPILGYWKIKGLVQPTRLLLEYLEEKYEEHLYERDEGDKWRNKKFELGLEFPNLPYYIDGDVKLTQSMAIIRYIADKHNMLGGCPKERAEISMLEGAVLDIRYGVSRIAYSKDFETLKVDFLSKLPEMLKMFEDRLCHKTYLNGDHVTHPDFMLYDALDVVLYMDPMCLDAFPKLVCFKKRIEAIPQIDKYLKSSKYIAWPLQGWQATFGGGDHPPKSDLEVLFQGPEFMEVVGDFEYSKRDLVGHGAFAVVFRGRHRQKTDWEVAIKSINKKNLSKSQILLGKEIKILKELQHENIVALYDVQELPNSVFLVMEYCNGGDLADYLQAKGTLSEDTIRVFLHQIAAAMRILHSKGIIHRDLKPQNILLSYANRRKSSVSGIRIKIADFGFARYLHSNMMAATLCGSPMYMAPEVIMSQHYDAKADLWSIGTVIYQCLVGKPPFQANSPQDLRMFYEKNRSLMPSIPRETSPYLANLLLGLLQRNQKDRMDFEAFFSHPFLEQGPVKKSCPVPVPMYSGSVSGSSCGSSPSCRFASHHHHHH

Compound	IC50 (ULK1 kinase) [nM]	IC50 (ULK2 kinase) [nM]	IC50 (LRRK2 kinase) [nM]	IC50 [1] [nM]
Cc1nn(C2CCN(C)CC2)cc1Nc1ncc(Cl)c(NCCCN(C)C(=O)C2CCC2)n1 [Example 27]	1 to 25	25 to 100	1 to 100	–
Cc1cc(C2CCNCC2)ccc1Nc1ncc(Cl)c(NCCCN(C)C(=O)C2CCC2)n1 [Example 15]	100 to 500	–	1 to 100	–
[2H]C([2H])([2H])N1CCC(n2cc(Nc3ncc(Br)c(NCCCNC(=O)C4CCC4)n3)c(C)n2)CC1 [Example 29]	25 to 100	–	100 to 300	–
Cc1cc(N2CCOCC2)ncc1Nc1ncc(C(F)(F)F)c(NCCCNC(=O)C2CCC2)n1 [Example 6]	500 to 20000	500 to 20000	300 to 600	–
Cc1cc(N2CCN(C)CC2)ncc1Nc1cc(NCCCNC(=O)C2CCC2)c(C(F)(F)F)cn1 [Example 31, N-(3-((2-((4-methyl-6-(4-methylpiperazin-1-yl)pyridin-3-yl)amino)-5-(trifluoromethyl)pyridin-4-yl)amino)propyl)cyclobutanecarboxamide]	100 to 500	–	–	–
Cc1nn(C2CCNCC2)cc1Nc1ncc(C2CC2)c(NCCCNC(=O)C2CCC2)n1 [Example 24]	100 to 500	–	600 to 20000	–
Cc1cc(C2CCNCC2)ccc1Nc1ncc(C(F)(F)F)c(NCCCN(C)C(=O)C2CCC2)n1 [Example 16]	1 to 25	25 to 100	1 to 100	100 to 300
Cc1cc(C2CCN(C)CC2)ccc1Nc1ncc(Cl)c(NCCCN(C)C(=O)C2CCC2)n1 [Example 17]	100 to 500	–	1 to 100	–
Cc1cc(C2CCN(C)CC2)ccc1Nc1ncc(C(F)(F)F)c(NCCCN(C)C(=O)C2CCC2)n1 [Example 18]	1 to 25	–	1 to 100	–
[2H]C([2H])([2H])N1CCC(n2cc(Nc3ncc(C(F)(F)F)c(NCCCNC(=O)C4CCC4)n3)c(C)n2)CC1 [Example 20]	1 to 25	25 to 100	100 to 300	100 to 300
Cc1nn(C2CCNCC2)cc1Nc1ncc(C(F)(F)F)c(NCCCNC(=O)C2CCC2)n1 [Example 21, N-(3-((2-((3-methyl-1-(piperidin-4-yl)-1H-pyrazol-4-yl)amino)-5-(trifluoromethyl)pyrimidin-4-yl)amino)propyl)cyclobutanecarboxamide]	1 to 25	25 to 100	1 to 100	100 to 300
COc1cc(N2CCN(C)CC2)ccc1Nc1ncc(C2CC2)c(NCCCNC(=O)C2CCC2)n1 [Example 11]	500 to 20000	–	600 to 20000	–
Cc1cc(N2CCN(C)CC2)ccc1Nc1ncc(C(F)(F)F)c(NCCCNC(=O)C2CCC2)n1 [Example 2]	1 to 25	–	1 to 100	100 to 300
Cc1cc(N2CCN(C)CC2)ncc1Nc1ncc(C(F)(F)F)c(NCCCNC(=O)C2CCC2)n1 [Example 5]	100 to 500	100 to 500	600 to 20000	–
Cc1nn(C2CCN(CC(C)C)CC2)cc1Nc1ncc(C(F)(F)F)c(NCCCNC(=O)C2CCC2)n1 [Example 23]	1 to 25	25 to 100	1 to 100	10 to 100
Cc1nn(C2CCN(C)CC2)cc1Nc1ncc(C2CC2)c(NCCCNC(=O)C2CCC2)n1 [Example 25]	100 to 500	–	600 to 20000	–
Cc1nn(C2CCN(C(C)C)CC2)cc1Nc1ncc(C(F)(F)F)c(NCCCNC(=O)C2CCC2)n1 [Example 22, N-(3-((2-((1-(1-isopropylpiperidin-4-yl)-3-methyl-1H-pyrazol-4-yl)amino)-5-(trifluoromethyl)pyrimidin-4-yl)amino)propyl)cyclobutanecarboxamide]	25 to 100	–	1 to 100	300 to 600
